Like-named read-outs stand apart in the source and are kept apart here.
Assays:
armyworm = test: Determination of activity against armyworm (corn leaf dip, third instar, 72 h mortality); assay type: in vivo; details: foliar; for mortality at 0.1 µg/mL: read-out: Mortality rate (%) 0.1 mg/L
Experimental: (§1) According to the solubility of test compounds, the compounds are dissolved in acetone or dimethyl sulfoxide, and then diluted with 0.1% aqueous solution of Tween 80 to form a required concentration of 50 ml test liquid, The content of the acetone or the dimethyl sulfoxide in the total solution is not more than 10%.
The middle leaves of fresh corns were cut into small sections of 3 cm, and dipped into a solution of the required concentration of test compounds for 10 seconds. After dried in shade, the middle leaves were placed in a 9 cm diameter petri dish provided with filter paper. Fourteen regular healthy test insects (third instar) were put into the leaves. Four replicates were set for each treatment. The pure water treatment was set as control check. The treated discs were placed in a chamber of is 24° C., 60%-70% relative humidity and day light. After 72 hours, the number of surviving insects was investigated, and the mortality rate was calculated.

diamondback moth = test: Determination of activity against diamondback moth (cabbage leaf disc dip, second instar, 72 h mortality); assay type: in vivo; details: Plutella xylostella, foliar, 1 mg/L, read-out: mortality rates against diamondback moth
Experimental: as §1
The leaves of cabbage grown in greenhouse were selected, removed the surface waxy layers, punched into circular leaf discs with a diameter of 2 cm by using a puncher, and dipped into a solution of the required concentration of test compounds for 10 seconds. After dried in shade, the circular leaf discs were placed in a 9 cm diameter petri dish provided with filter paper. Ten regular healthy test insects (second instar) were put into the leaf discs. Four replicates were set for each treatment. The pure water treatment was set as control check. The treated discs were placed in a chamber of 24° C., 60%-70% relative humidity and day light. After 72 hours, the number of surviving insects was investigated, and the mortality rate was calculated.

adult spider mite = test: Determination of acaricidal activity against adult spider mite (bean leaf spray, 72 h mortality); assay type: in vivo; details: after 72 hours
Experimental: as §1, with “liquid.” for “liquid,”
The adult spider mites were put into two true leaves of bean plants. After the number of mites was investigated, the solution of certain concentrations of test compounds was sprayed by using a handheld Airbrush. Three replicates were set for each treatment. Then the leaves were maintained in a standard observation room. After 72 hours, the number of surviving mites was observed, and the mortality rate was calculated.

Plutella xylostella = details: 100 ppm; disclosed in WO2005073165A1, US2007275980A1, US20140206727A1; cited from earlier work
Spodoptera litura = details: 100 ppm; disclosed in WO2005073165A1, US2007275980A1, US20140206727A1; cited from earlier work
rice leaf folder = test: Determination of activity against rice leaf folder in field trial (foliar spray, 15 days mortality); assay type: in vivo; details: after 15 days
Experimental: A certain concentration of test compounds was sprayed on the leaf surfaces in the peak of the hatching period of the rice leaf folders, with a spray volume of 450 L per hectare. The area of a rice plot was 32 square meters. Three replicates were set for each treatment. After 15 days, the number of surviving rice leaf folders was investigated, and the mortality rate was calculated. See Table 3 for parallel determination results of activity of compounds I-8 and KC2 against rice leaf folder.

green peach aphid = test: Determination of activity against green peach aphid (cabbage leaf spray, 48 h mortality); assay type: in vivo; details: Myzus persicae, 10 mg/L, read-out: mortality rates against green peach aphid
Experimental: as §1
A layer of filter paper was covered on the bottom of the 6 cm diameter petri dish. To the petri dish, a proper amount of tap water was added dropwise for moisture retention. Cabbage leaves, on which 15-30 aphids exist, with a suitable size (about 3 cm in diameter) were cut from the cabbage plants breeding peach aphids. After winged aphids and the aphids on the front surface of the leaves were removed, the leaves were placed in the petri dish in a manner of backing on to the petri dish, and sprayed with a handheld Airbrush, with a pressure of 10 psi (about 0.7 kg/cm^2) and a spray volume of 0.5 ml, Three replicates were set for each treatment. After treatment, the cabbage leaves were placed in a standard observation room. After 48 hours, the number of surviving aphids was investigated, and the mortality rate was calculated.

beet armyworm = test: Determination of activity against beet armyworm (cabbage leaf disc spray, third instar, 96 h mortality); assay type: in vivo; details: after 96 hours
Experimental: as §1
The cabbage leaves were punched into circular leaf discs with a diameter of 1 cm by using a puncher. A certain concentration of test compound was sprayed on both sides of each leaf disc at a spray volume of 0.5 ml by a handheld Airbrush. After the leaf discs were dried in shade, 12 test insects (third instar) were put into the leaf discs. Three replicates were set for each treatment. The pure water treatment was set as control check. The treated discs were placed in a chamber of 24° C., 60%-70% relative humidity and day light. After 96 hours, the number of surviving insects was investigated, and the mortality rate was calculated. See Table 2 for parallel determination results of activity of compounds 1-8 and KC2 (compound 3-1 in U.S. Pat. No. 8,853,440B2) against beet armyworm.

housefly larva = test: Determination of activity against housefly larva (feed poisoning method, third instar, 72 h mortality); assay type: in vivo; details: after 72 hours
Experimental: Third instar housefly larvae were tested by a feed poisoning method. 1000 mg/L, of acetone solution of the test compounds was diluted into a required concentration of test liquid by using a certain concentration of milk powder emulsion according to a test design dose. The test liquid was uniformly added to a 6 cm diameter petri dish provided with filter paper by using a pipette, with 1 ml per dish. The third instar housefly larvae were put into the petri dish. Three replicates were set for each treatment. Then the petri dishes were maintained in a standard observation room. After 72 hours, the number of surviving housefly larvae was investigated, and the mortality rate was calculated. See Table 5 for parallel determination results of activity of compounds I-51 and KC2 against housefly larva.

[1] = 0.3 mg/L, 72 hours, read-out: mortality rates against armyworm
[2] = 0.1 mg/L, armyworm, 72 hours, parallel determination
[3] = 0.3 mg/L, armyworm, 72 hours, parallel determination, read-out: Mortality rate (%) 0.3 mg/L

SMILES | mortality at 0.3 µg/mL (armyworm; [1]) | mortality at 1 µg/mL (diamondback moth) | Mortality rate (%) (adult spider mite; 10 mg/L) | Mortality rate (%) (adult spider mite; 100 mg/L) | Mortality rate (%) (adult spider mite; 600 mg/L) | also measured
CN(C(=O)c1ccc2c(c1)OC(F)(F)O2)c1cccc(C(=O)Nc2c(Br)cc(C(F)(C(F)(F)F)C(F)(F)F)cc2C(F)(F)F)c1F [Compound I-45, N-(2-bromo-4-heptafluoroisopropyl-6-trifluoromethylphenyl)-2-fluoro-3-(N-methyl-2,2-difluoro-1,3-benzodioxole-5-carboxamido) Benzamide] | > 90% | > 90% | – | – | – | –
O=C(Nc1cccc(C(=O)Nc2c(Br)cccc2Br)c1F)c1ccc2c(c1)OC(F)(F)O2 [Compound C2] | – | – | 0% | 0% | 0% | –
O=C(Nc1cccc(C(=O)Nc2c(Br)cc(C(F)(C(F)(F)F)C(F)(F)F)cc2Br)c1F)c1ccccc1 [KC3] | – | – | 0% | 0% | 0% | mortality at 0.1 µg/mL (armyworm; [2]): 28.6%; mortality at 0.3 µg/mL (armyworm; [3]): 64.3%
O=C(Nc1cccc(C(=O)Nc2ccc(C(F)(C(F)(F)F)C(F)(F)F)cc2)c1F)c1ccc2c(c1)OC(F)(F)O2 [Compound C1] | – | – | 0% | 0% | 0% | –
O=C(Nc1cccc(C(=O)Nc2c(Br)cc(C(F)(C(F)(F)F)C(F)(F)F)cc2I)c1F)c1ccc2c(c1)OC(F)(F)O2 [Compound I-5, N-(2-bromo-6-iodo-4-perfluoroisopropylphenyl)-3-(2,2-difluoro-1,3-benzodioxole-5-carboxamido)-2-fluorobenzamide] | > 90% | > 90% | – | – | – | –
Cc1cc(C(F)(C(F)(F)F)C(F)(F)F)cc(C)c1NC(=O)c1cccc(NC(=O)c2ccc3c(c2)OC(F)(F)O3)c1 [KC1] | – | – | 0% | 0% | 0% | mortality rates against Plutella xylostella (Plutella xylostella): ≥ 70%; mortality at 0.1 µg/mL (armyworm; 72 h): 0%; mortality at 0.3 µg/mL (armyworm; 72 h, read-out: Mortality rate (%) 0.3 mg/L): 0%; mortality rates against Spodoptera litura (Spodoptera litura): ≥ 70%
O=C(Nc1cccc(C(=O)Nc2c(Br)cc(C(F)(C(F)(F)F)C(F)(F)F)cc2Br)c1F)c1ccc2c(c1)OC(F)(F)O2 [Compound I-8] | > 90% | > 90% | 93.3% | 100% | 100% | mortality at 0.1 µg/mL (armyworm; [2]): 100%; mortality at 0.3 µg/mL (armyworm; [3]): 100%; Mortality rate (%) (rice leaf folder; 30 g/ha): 83%; Mortality rate (%) (rice leaf folder; 45 g/ha): 85%; mortality at 10 µg/mL (green peach aphid): > 80%; Mortality rate (%) (beet armyworm; 0.2 mg/L): 83.3%; Mortality rate (%) (beet armyworm; 1 mg/L): 91.7%
CN(C(=O)c1ccccc1)c1cccc(C(=O)Nc2c(Br)cc(C(F)(C(F)(F)F)C(F)(F)F)cc2C(F)(F)F)c1F [KC2, Broflanilide, reference compound] | – | – | 0% | 0% | 0% | Mortality rate (%) (rice leaf folder; 30 g/ha): 79%; Mortality rate (%) (rice leaf folder; 45 g/ha): 82%; Mortality rate (%) (housefly larva; 1 mg/L): 50%; Mortality rate (%) (housefly larva; 3 mg/L): 69.6%; Mortality rate (%) (housefly larva; 10 mg/L): 100%; Mortality rate (%) (beet armyworm; 0.2 mg/L): 66.7%; Mortality rate (%) (beet armyworm; 1 mg/L): 83.3%
CN(C(=O)c1ccc2c(c1)OC(F)(F)O2)c1cccc(C(=O)Nc2c(I)cc(C(F)(C(F)(F)F)C(F)(F)F)cc2I)c1F [Compound I-44] | > 90% | > 90% | – | – | – | –
CN(C(=O)c1ccc2c(c1)OC(F)(F)O2)c1cccc(C(=O)Nc2c(Br)cc(C(F)(C(F)(F)F)C(F)(F)F)cc2I)c1F [Compound I-48, N-(2-bromo-6-iodo-4-perfluoroisopropylphenyl)-2-fluoro-3-(N-methyl-2,2-difluoro-1,3-benzodioxole-5-carboxamido)benzamide] | > 90% | > 90% | – | – | – | –
CN(C(=O)c1ccc2c(c1)OC(F)(F)O2)c1cccc(C(=O)Nc2c(Br)cc(C(F)(C(F)(F)F)C(F)(F)F)cc2Br)c1F [Compound I-51, N-(2,6-dibromide-4-heptafluoroisopropylphenyl)-2-fluoro-3-(N-methyl-2,2-difluoro-1,3-benzodioxole-5-carboxamido)benzamide] | > 90% | > 90% | – | – | – | mortality at 0.1 µg/mL (armyworm; [2]): 85.7%; mortality at 0.3 µg/mL (armyworm; [3]): 100%; mortality at 10 µg/mL (green peach aphid): > 80%; Mortality rate (%) (housefly larva; 1 mg/L): 75%; Mortality rate (%) (housefly larva; 3 mg/L): 90.5%; Mortality rate (%) (housefly larva; 10 mg/L): 100%
O=C(Nc1cccc(C(=O)Nc2c(Br)cc(C(F)(C(F)(F)F)C(F)(F)F)cc2C(F)(F)F)c1F)c1ccc2c(c1)OC(F)(F)O2 [Compound I-2] | > 90% | > 90% | – | – | – | –

Source: patent US11891371B2, “Piperonylic acid derivative and preparation and application thereof” (SHENYANG SINOCHEM AGROCHEMICALS R&D CO., LTD., priority 2017, dated 2024)
